# Measured values from US8853406B2, “Substituted phenylenediamines as inhibitors of the interaction between MDM2 and P53” (Janssen Pharmaceutica NV, priority 2007, dated 2014).
# Experiments:
# [1] = tested on: p53 in A2780 cells; assay: p53 ELISA in A2780 cells (capacity to preserve p53); format: cell-based; details: lowest dose giving at least 140% of the p53 value of the control, 16 hours
# Description: The capacity of the compounds to preserve p53 in A2780 cells was measured with the p53 enzyme linked immunosorbent assay. The p53 assay is a “sandwich” enzyme immunoassay employing two polyclonal antibodies. A polyclonal antibody, specific for the p53 protein, has been immobilized onto the surface of the plastic wells. Any p53 present in the sample to be assayed will bind to the capture antibody. The biotinylated detector polyclonal antibody also recognizes p53 protein, and will bind to any p53, which has been retained by the capture antibody. The detector antibody, in turn, is bond by horseradish peroxidase-conjugated streptavidin. The horseradish peroxidase catalyses the conversion of the chromogenic substrate o-phenylene diamine, the intensity of which is proportional to the amount of p53 protein bond to the plate. The colored reaction product is quantified using a spectrophotometer. Quantitation is achieved by the construction of a standard curve using known concentrations of purified recombinant HIS tagged p53 protein (see example C.1.).
# A2780 cells (ATCC) were cultivated in RPMI 1640 supplemented with 10% fetal calf serum (FCS), 2 mM L-glutamine and gentamycin at 37° C. in a humidified incubator with 5% CO2.
# A2780 cells were seeded at 20.000 cells per well in a 96 well plate, cultured for 24 hours and treated with compound for 16 hours at 37° C. in a humidified incubator. After incubation, the cells were washed once with phosphate-buffered saline and 30 μl, per well, low salt RIPA buffer (20 mM tris, pH7.0, 0.5 mM EDTA, 1% Nonidet P40, 0.5% DOC, 0.05% SDS, 1 mM PMSF, 1 μg/ml aprotinin and 0.5 μ/ml leupeptin) was added. Plates were placed on ice for 30 minutes to complete the lysis. p53 protein was detected in de lysates by using the sandwich ELISA, described below.
# High binding polystyrene EIA/RIA 96 well plates (Costar 9018) were coated with the capture antibody pAb1801 (Abcam ab28-100) at a concentration of 1 μg/ml in coating buffer (0.1 M NaHCO3 pH8.2), 50 μl per well. The antibody was allowed to adhere overnight at 4° C. Coated plates were washed once with phosphate-buffered saline (PBS)/0.05% Tween 20 and 300 μl of blocking buffer (PBS, 1% bovine serum albumins (BSA)) was added, for an incubation period of 2 hours at room temperature. Dilutions of purified recombinant HIS tagged p53 protein, ranging from 3-200 ng/ml, were made in blocking buffer and used as standards.
# Plates were washed twice with PBS/0.05% Tween 20 and blocking buffer or standards were added at 80 μl/well. To the standards, 20 μl of lysis buffer was added. The samples were added to the other wells at 20 μl lysate/well. After an overnight incubation at 4° C., plates were washed twice with PBS/0.05% Tween 20. Aliquots of 100 μl secondary polyclonal antibody p53(FL-393) (Tebubio, sc-6243) at a concentration of 1 μg/ml in blocking buffer were added to each well and allowed to adhere for 2 hours at room temperature. Plates were washed three times with PBS/0.05% Tween 20. Detection antibody anti-rabbit HRP (sc-2004, Tebubio) at 0.04 μg/ml in PBS/1% BSA was added and incubated for 1 hour at room temperature. Plates were washed three times with PBS/0.05% Tween 20 and 100 μl of substrate buffer was added (substrate buffer was prepared shortly before use by adding 1 tablet of 10 mg o-phenylene diamine (OPD) from Sigma and 125 μl 3% H2O2 to 25 ml OPD buffer: 35 mM citric acid, 66 mM Na2HPO4, pH5.6). After 5 to 10 minutes, colour reaction was stopped by adding 50 μl stop buffer (1 M H2SO4) per well. The absorbance at dual wavelengths of 490/655 nm was measured using a Biorad micro plate reader and the results were then analyzed.
# For each experiment, controls (containing no drug) and a blank incubation (containing no cells or drugs) were run in parallel. The blank value was subtracted from all control and sample values. For each sample, the value of p53 (in absorbance units) was expressed as the percentage of the value for p53 present in the control. […]
# [2] = tested on: p53 in U87MG cells; assay: U87MG p53-elisa as described in EP1809622; format: cell-based; details: lowest dose giving at least 140% of the p53 value of the control
# [3] = tested on: Male NMRI mice; assay: Ro-4-1284 antagonism in mice (drug induced neurological effects); format: in vivo; details: Ro-4-1284 antagonism in mice
# Description: The test is a modification of a procedure described by Colpaert et al. (1975).^3 Male NMRI mice (22±3 g) were housed in macrolon observation cages (L×W×H: 11×12×17 cm; n=3 per cage). At the start of the experiments immediately before test compound administration, the initial body temperature of the mice was measured with a precision of 0.1° C. by inserting the thermo-sensitive probe (1.0 mm diameter) of an electric thermometer (Comark) to a constant depth of 3 cm into the esophagus until a stable reading was obtained. The right eye pupil diameter was measured with a graduated microscope and expressed in 1/24 mm units. Fifteen min after test compound administration, the mice were challenged with Ro-4-1284 (10 mg/kg, s.c.). Ro-4-1284 is a reserpine-like vesicular monoamine transport (VMAT-2) inhibitor, which rapidly depletes secretory vesicles.^3,4 Fifteen, 30 and 60 min after challenge, the mice were scored for palpebral opening (0, 1, 2, 3, 4, 5) and locomotor activity (−1, 0, 1, 2, 3). At the 60-min interval, immediately after the scoring of overt behavior, the right eye pupil diameter and the esophageal temperature were measured again. Abnormal phenomena such as intensive sniffing, chewing, rearing, hyperemia, piloerection, salivation, tremors, convulsions and death were noted (the latter phenomena were also noted when occurring before Ro-4-1284 administration). Criteria for drug-induced effects: reversal of ptosis: palpebral opening score >1 at 15, 30 or 60 min (2.7, 0.5 and 0% false positive controls, respectively; n>350); induction of prostration: score −1 for locomotion at 15, 30 or 60 min (never observed in controls); reversal of hypomotility: score >0 for locomotion at 15, 30 and 60 min (2.2, 0.8 and 0% false positive controls, respectively); reversal of miosis: pupil diameter >5 units at 60 min (0.8% false positives); potentiation of hypothermia: temperature decrease (over the 1-h time interval)>9.0° C. (1.4% false positives); reversal of hypothermia: temperature decrease <3.0° C. (1.8% false positives).
# According to the standard procedure, R0-4-1284 is injected 15 min following subcutaneous or oral administration and observations start 15 min later. Doses are initially given to 3 animals. When at least 2 out of the 3 animals show activity for at least one of the observations, the compound is considered active.
# [4] = Crystallographic stability of Form I (TGA, DSC, XRPD, IR after storage); format: physicochemical; set-up: key to XRD / IR: ~Ref: identical with reference; Cryst.: crystalline
# Description: The crystallographic stability of Form I of compound No. 1 was studied according to the following procedure:
# after storage of the compound in open conditions for a period of six weeks at room temperature (RT) under <5%, 56% and 75% relative humidity (RH), 50° C. and 40° C./75% RH., the samples were analyzed with thermogravimetry (TGA), differential scanning calorimetry (DSC), X-ray powder diffraction (XRPD) and infrared spectroscopy (IR).
# [5] = Chemical stability of Form I (HPLC and visual inspection after storage); format: physicochemical
# Description: The chemical stability of Form I of compound No. 1 was studied according to the following procedure:
# Form I was stored in different open conditions for periods of 1, 4 and 8 weeks. These conditions are 40° C./75% RH, 50° C., RT/<5% RH, RT/56% RH, RT/75% RH and 0.3 da ICH light.
# The compounds were analyzed after storage by HPLC and by visual inspection.
# [6] = Slurry conversion experiment; format: physicochemical; details: various solvents, 50° C., 24 hours
# Description: Concentrated/saturated solutions of compound No. 1 drug substance were prepared at 50° C. in 13 different solvents (water, methanol, ethanol, 2-propanol, acetone, acetonitrile, toluene, tetrahydrofuran, dichloromethane, 2-butanone, ethyl acetate, dimethylformamide, 1-methoxy-2-propanol) to support the automated polymorph screen. […] The slurry solids were retrieved from their solvent systems, dried under an air stream, placed under vacuum at room temperature overnight, and then analyzed for slurry conversion using XRD.
# [7] = Physical properties of the solid state forms; format: physicochemical
# Description: Form I was denoted as a crystalline, non-hygroscopic solid that melts at approximately 192° C. Form II was described as a crystalline solid with a melting point at approximately 186° C.
smiles,measurement,setting,value
OC1CCc2c(Nc3ccc(NCCc4c[nH]c5ccccc45)cc3)ccnc21 (centres unmarked) [drawing 33],A2780 p53-elisa LAD,[1],1.00E-07
same,U87MG p53-elisa LAD,[2],1.00E-06
same,drug induced neurological side effects,[3],yes
Cc1cc(Nc2ccnc3c2CCC3O)ccc1NCCc1c[nH]c2c(C)cccc12 (centres unmarked) [Form I],App,[4]; 0 days,brown-grey
same,DSC Max,[4]; 0 days,192.1 °C
same,DSC ΔH,[4]; 0 days,122 J/g
same,IR,[4]; 0 days,"Cryst., Ref"
same,TGA <175° C.,[4]; 0 days,0.05%
same,TGA <225° C.,[4]; 0 days,0.19%
same,XRD,[4]; 0 days,"Cryst., Ref"
same,crystallographic stability,"[4]; open storage six weeks, all conditions",crystallographically stable
same,App,"[4]; six weeks open, 40° C./75% RH",brown-grey
same,DSC Max,"[4]; six weeks open, 40° C./75% RH",191.7 °C
same,DSC ΔH,"[4]; six weeks open, 40° C./75% RH",123 J/g
same,IR,"[4]; six weeks open, 40° C./75% RH",~Ref
same,TGA <175° C.,"[4]; six weeks open, 40° C./75% RH",0.06%
same,TGA <225° C.,"[4]; six weeks open, 40° C./75% RH",0.19%
same,XRD,"[4]; six weeks open, 40° C./75% RH",~Ref
same,App,"[4]; six weeks open, 50° C.",brown-grey
same,DSC Max,"[4]; six weeks open, 50° C.",191.6 °C
same,DSC ΔH,"[4]; six weeks open, 50° C.",122 J/g
same,IR,"[4]; six weeks open, 50° C.",~Ref
same,TGA <175° C.,"[4]; six weeks open, 50° C.",0%
same,TGA <225° C.,"[4]; six weeks open, 50° C.",0.2%
same,XRD,"[4]; six weeks open, 50° C.",~Ref
same,App,"[4]; six weeks open, RT/56% RH",brown-grey
same,DSC Max,"[4]; six weeks open, RT/56% RH",191.8 °C
same,DSC ΔH,"[4]; six weeks open, RT/56% RH",108 J/g
same,IR,"[4]; six weeks open, RT/56% RH",~Ref
same,TGA <175° C.,"[4]; six weeks open, RT/56% RH",0.15%
same,TGA <225° C.,"[4]; six weeks open, RT/56% RH",0.2%
same,XRD,"[4]; six weeks open, RT/56% RH",~Ref
same,App,"[4]; six weeks open, RT/75 % RH",brown-grey
same,DSC Max,"[4]; six weeks open, RT/75 % RH",191.7 °C
same,DSC ΔH,"[4]; six weeks open, RT/75 % RH",112 J/g
same,IR,"[4]; six weeks open, RT/75 % RH",~Ref
same,TGA <175° C.,"[4]; six weeks open, RT/75 % RH",0.14%
same,TGA <225° C.,"[4]; six weeks open, RT/75 % RH",0.25%
same,XRD,"[4]; six weeks open, RT/75 % RH",~Ref
same,App,"[4]; six weeks open, RT/<5% RH",brown-grey
same,DSC Max,"[4]; six weeks open, RT/<5% RH",191.7 °C
same,DSC ΔH,"[4]; six weeks open, RT/<5% RH",125 J/g
same,IR,"[4]; six weeks open, RT/<5% RH",~Ref
same,TGA <175° C.,"[4]; six weeks open, RT/<5% RH",0%
same,TGA <225° C.,"[4]; six weeks open, RT/<5% RH",0.31%
same,XRD,"[4]; six weeks open, RT/<5% RH",~Ref
same,Appearance,[5]; 0.3da ICH light (1 week),brown-grey
same,HPLC Sum of impurities,[5]; 0.3da ICH light (1 week),0.18%
same,Appearance,"[5]; 40° C./75% RH, 1 week",brown-grey
same,HPLC Sum of impurities,"[5]; 40° C./75% RH, 1 week",0.13%
same,Appearance,"[5]; 40° C./75% RH, 4 weeks",brown-grey
same,HPLC Sum of impurities,"[5]; 40° C./75% RH, 4 weeks",0.14%
same,Appearance,"[5]; 40° C./75% RH, 8 weeks",brown-grey
same,HPLC Sum of impurities,"[5]; 40° C./75% RH, 8 weeks",0.2%
same,Appearance,"[5]; 50° C., 1 week",brown-grey
same,HPLC Sum of impurities,"[5]; 50° C., 1 week",0.28%
same,Appearance,"[5]; 50° C., 4 weeks",brown-grey
same,HPLC Sum of impurities,"[5]; 50° C., 4 weeks",0.14%
same,Appearance,"[5]; 50° C., 8 weeks",brown-grey
same,HPLC Sum of impurities,"[5]; 50° C., 8 weeks",0.24%
same,Appearance,"[5]; RT/56% RH, 4 weeks",brown-grey
same,HPLC Sum of impurities,"[5]; RT/56% RH, 4 weeks",0.22%
same,Appearance,"[5]; RT/56% RH, 8 weeks",brown-grey
same,HPLC Sum of impurities,"[5]; RT/56% RH, 8 weeks",0.24%
same,Appearance,"[5]; RT/75% RH, 4 weeks",brown-grey
same,HPLC Sum of impurities,"[5]; RT/75% RH, 4 weeks",0.2%
same,Appearance,"[5]; RT/75% RH, 8 weeks",brown-grey
same,HPLC Sum of impurities,"[5]; RT/75% RH, 8 weeks",0.18%
same,Appearance,"[5]; RT/<5% RH, 4 weeks",brown-grey
same,HPLC Sum of impurities,"[5]; RT/<5% RH, 4 weeks",0.19%
same,Appearance,"[5]; RT/<5% RH, 8 weeks",brown-grey
same,HPLC Sum of impurities,"[5]; RT/<5% RH, 8 weeks",0.24%
same,Appearance,[5]; Reference (1 week),brown-grey
same,HPLC Sum of impurities,[5]; Reference (1 week),0.23%
same,chemical stability,"[5]; open storage 1, 4 and 8 weeks, all investigated conditions",chemically stable in all investigated conditions
same,form conversion when slurried,[6],No form conversion was observed
same,hygroscopicity,[7],non-hygroscopic
Cc1cccc2c(CCNc3ccc(Nc4ccncc4)cc3)c[nH]c12,A2780 p53-elisa LAD,[1],3.00E-07
same,U87MG p53-elisa LAD,[2],1.00E-06
same,drug induced neurological side effects,[3],yes
